Experiments:
Format in all cases: in vivo
Phytophthora infestans [1] = test: whole plant or invertebrate; details: tomato late blight
[2] = test system: Erysiphe graminis f. sp. tritici; test: Test E: wheat powdery mildew, spray the day before inoculation (disease rating, 100 = 100% disease control)
In short: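 Protective test: spores of E. graminis f. sp. tritici dusted on wheat seedlings one day after run-off spraying of test suspension (acetone/water with 250 ppm surfactant; 200 ppm = 500 g/ha). Ratings after 7 days in growth chamber at 20° C, 100 = full control, 0 = none, relative to controls.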

[3] = test system: Pseudoperonospora cubensis; test: Test A: cucumber downy mildew, spray the day before inoculation (disease rating, 100 = 100% disease control)
Excerpt: The test compounds were first dissolved in acetone in an amount equal to 3% of the final volume and then suspended at the desired concentration (in ppm) in acetone and purified water (50/50 mix by volume) containing 250 ppm of the surfactant Trem® 014 (polyhydric alcohol esters). The resulting test suspensions were then used in tests A-E. Spraying a 200 ppm test suspension to the point of run-off on the test plants was the equivalent of a rate of 500 g/ha.
The test suspension was sprayed to the point of run-off on cucumber seedlings. The following day the seedlings were inoculated with a spore suspension of Pseudoperonospora cubensis (the causal agent of cucumber downy mildew) and incubated in a saturated atmosphere at 20° C. for 24 h, and then moved to a growth chamber at 20° C. for 6 days, after which disease ratings were made.
Results for Tests A-F are given in Table A. In the table, a rating of 100 indicates 100% disease control and a rating of 0 indicates no disease control (relative to the controls). A dash (-) indicates no test results.

Plasmopara viticola = test: Test B: grape downy mildew, spray 24 h after inoculation (disease rating, 100 = 100% disease control)
In short: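 This is a curative spray test, applied 24 h after inoculation. Compounds in 50/50 acetone–water with 250 ppm Trem 014 surfactant were sprayed to run-off on P. viticola-infected seedlings, with 200 ppm equating to 500 g/ha. Plants were kept 5 days in a 20 °C growth chamber, then 24 h humid, and scored 0–100 for disease control relative to controls.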

Phytophthora infestans [4] = test: whole plant or invertebrate; details: tomato late blight; spray 17 h after inoculation; compounds without asterisk (not 40 or 10 ppm)
[5] = test system: Pseudoperonospora cubensis; test: Test F: cucumber downy mildew, DMSO/acetone/water test suspension, spray the day before inoculation (disease rating, 100 = 100% disease control); details: DMSO/acetone/water suspension, spray the day before inoculation, compounds without asterisk
In short: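 Cucumber seedlings inoculated with spores one day after spraying with the test suspension (4% DMSO in acetone/water 30/70; 250 ppm ≈ 250 g/ha). Kept 24 h in saturated air, then 6 days in a growth chamber, both at 20° C. Scored as % disease control versus untreated (100 = full control).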

[6] = spray the day before inoculation, compounds without asterisk (not 40 or 10 ppm)
[7] = spray 24 h after inoculation, compounds without asterisk (not 40 or 10 ppm)
[8] = sprayed the day before inoculation, unmarked compounds (no asterisk, not 40 or 10 ppm)
[9] = sprayed the day before inoculation, 7 days at 20° C., unmarked compounds (no asterisk, not 40 or 10 ppm)
[10] = sprayed 24 h after inoculation, unmarked compounds (no asterisk, not 40 or 10 ppm)

Row | Compound | Test C disease rating (100 = 100% disease control, 0 = no disease control) (Phytophthora infestans [1]; [6]) [%] | Test E disease rating (100 = 100% disease control, 0 = no disease control) [2, 6] [%] | Test A disease rating (100 = 100% disease control, 0 = no disease control) [3, 6] [%] | Test B disease rating (100 = 100% disease control, 0 = no disease control) (Plasmopara viticola; [7]) [%] | Test C disease rating (100 = 100% disease control, 0 = no disease control) (Phytophthora infestans [1]; [8]) | Test E disease rating (100 = 100% disease control, 0 = no disease control) [2, 9] | Test A disease rating (100 = 100% disease control, 0 = no disease control) [3, 8] | Test B disease rating (100 = 100% disease control, 0 = no disease control) (Plasmopara viticola; [10]) | Test D disease rating (100 = 100% disease control, 0 = no disease control) (Phytophthora infestans [4]) [%] | Test F disease rating (100 = 100% disease control, 0 = no disease control) [5] [%]
1 | N-methyl-2-[1-[[5-methyl-3-(trifluoromethyl)-1H-pyrazol-1-yl]acetyl]-4-piperidinyl]-N-(1,2,3,4-tetrahydro-1-naphthalenyl)-4-thiazolecarboxamide [Compound 188] | 29 | 86 | 90 | 6 |  |  |  |  |  | 
2 | CN(Cc1ccccc1)C(=O)c1csc(C2CCN(C(=O)Cc3ccccc3Cl)CC2)n1 [compound 161] | 15 | 42 | 0 | 14 |  |  |  |  |  | 
3 | N-methyl-1-[1-[[5-methyl-3-(trifluoromethyl)-1H-pyrazol-1-yl]acetyl]-4-piperidinyl]-N-[(1R)-1,2,3,4-tetrahydro-1-naphthalenyl]-1H-pyrazole-4-carboxamide [Compound 233] | 91 | 29 | 96 | 51 |  |  |  |  |  | 
4 | N-[(1R)-2,3-dihydro-1H-inden-1-yl]-N-methyl-2-[1-[[5-methyl-3-(trifluoromethyl)-1H-pyrazol-1-yl]acetyl]-4-piperidinyl]-4-thiazolecarboxamide [Compound 178] | 100 | 0 | 100 | 99 |  |  |  |  |  | 
5 | 2-[1-[[5-chloro-3-(trifluoromethyl)-1H-pyrazol-1-yl]acetyl]-4-piperidinyl]-N-methyl-N-[(1R)-1,2,3,4-tetrahydro-1-naphthalenyl]-4-thiazolecarboxamide [Compound 249] | 0 | 0 | 0 | 0 |  |  |  |  |  | 
6 | C[C@H](c1ccccc1)N(C)C(=O)c1csc(C2CCN(C(=O)Nc3cccc(C(F)(F)F)c3)CC2)n1 [compound 155] | 31 | 0 | 100 | 41 |  |  |  |  |  | 
7 | O=C(Cc1ccccc1Cl)N1CCC(c2nc(C(=O)N3CCc4ccccc4C3)cs2)CC1 [compound 267] |  |  |  |  | 21 | 0 | 95 | 6 |  | 
8 | C[C@H](c1ccccc1)N(C)C(=O)c1csc(C2CCN(C(=O)Cc3cccc(OC(F)(F)F)c3)CC2)n1 [compound 49] | 67 | 85 | 97 | 83 |  |  |  |  |  | 
9 | O=C(Cc1ccccc1Cl)N1CCC(c2nc(C(=O)N3CCCC3c3cccnc3)cs2)CC1 (stereo not shown) [compound 269] |  |  |  |  | 0 | 0 | 0 | 40 |  | 
10 | C[C@H](c1ccccc1)N(C)C(=O)c1csc(C2CCN(C(=O)Cc3cccc(C(F)(F)F)c3F)CC2)n1 [compound 42] | 100 | 21 | 99 | 31 |  |  |  |  |  | 
11 | C[C@H](c1ccccc1)N(C)C(=O)c1csc(C2CCN(C(=O)Cc3ccc(F)c(C(F)(F)F)c3)CC2)n1 [compound 34] | 31 | 0 | 85 | 48 |  |  |  |  |  | 
12 | C[C@H](c1ccccc1)N(C)C(=O)c1csc(C2CCN(C(=O)Cc3cccc(S(C)(=O)=O)c3)CC2)n1 [compound 31] | 0 | 0 | 0 | 0 |  |  |  |  |  | 
13 | CC1CCN(C(=O)c2csc(C3CCN(C(=O)Cc4ccccc4Cl)CC3)n2)CC1 [compound 268] |  |  |  |  | 36 | 0 | 0 | 6 |  | 
14 | 2-[1-[(2,5-dimethylphenyl)acetyl]-4-piperidinyl]-N-methyl-N-[(1R)-1-phenylpropyl]-4-thiazolecarboxamide [Compound 58] | 56 | 0 | 0 | 20 |  |  |  |  |  | 
15 | 2-[1-[(3,5-dichloro-1H-pyrazol-1-yl)acetyl]-4-piperidinyl]-N-methyl-N-[(1R)-1,2,3,4-tetrahydro-1-naphthalenyl]-4-thiazolecarboxamide [Compound 238] | 0 | 0 | 0 | 6 |  |  |  |  |  | 
16 | C[C@@H](NC(=O)c1csc(C2CCN(C(=O)Cc3cccc(C(F)(F)F)c3)CC2)n1)c1ccc(Br)cc1 [compound 270] |  |  |  |  | 0 | 0 | 0 | 0 |  | 
17 | C[C@H](c1ccccc1)N(C)C(=O)c1csc(C2CCN(C(=O)Cc3cc(F)cc(C(F)(F)F)c3)CC2)n1 [compound 40] | 60 | 0 | 98 | 76 |  |  |  |  |  | 
18 | Cc1nc(CC(=O)N2CCC(c3nc(C(=O)N(C)[C@H](C)c4ccccc4)cs3)CC2)c(C)s1 [compound 92] | 100 | 0 |  | 83 |  |  |  |  | 100 | 100
19 | C[C@H](c1ccccc1)N(C)C(=O)c1coc(N2CCN(C(=O)Cc3cc(C(F)(F)F)ccc3Cl)CC2)n1 [compound 51] | 100 | 0 |  | 20 |  |  |  |  | 96 | 100
20 | C[C@H](c1ccccc1)N(C)C(=O)c1csc(C2CCN(C(=O)Cc3cc(Cl)ccc3Cl)CC2)n1 [compound 77] | 100 | 88 |  | 100 |  |  |  |  | 100 | 50
21 | Cc1ccc(C)c(CC(=O)N2CCC(c3nc(C(=O)N(C)C4CSCc5ccccc54)cs3)CC2)c1 (stereo not shown) [compound 172] | 100 | 0 |  | 43 |  |  |  |  | 100 | 99

— patent US8586611B2 (priority 2005, dated 2013)
